Biological target: T1, Toll-like receptor 7 (Homo sapiens, UniProt Q9NYK1)
T1 sequence (Q9NYK1 whole entry): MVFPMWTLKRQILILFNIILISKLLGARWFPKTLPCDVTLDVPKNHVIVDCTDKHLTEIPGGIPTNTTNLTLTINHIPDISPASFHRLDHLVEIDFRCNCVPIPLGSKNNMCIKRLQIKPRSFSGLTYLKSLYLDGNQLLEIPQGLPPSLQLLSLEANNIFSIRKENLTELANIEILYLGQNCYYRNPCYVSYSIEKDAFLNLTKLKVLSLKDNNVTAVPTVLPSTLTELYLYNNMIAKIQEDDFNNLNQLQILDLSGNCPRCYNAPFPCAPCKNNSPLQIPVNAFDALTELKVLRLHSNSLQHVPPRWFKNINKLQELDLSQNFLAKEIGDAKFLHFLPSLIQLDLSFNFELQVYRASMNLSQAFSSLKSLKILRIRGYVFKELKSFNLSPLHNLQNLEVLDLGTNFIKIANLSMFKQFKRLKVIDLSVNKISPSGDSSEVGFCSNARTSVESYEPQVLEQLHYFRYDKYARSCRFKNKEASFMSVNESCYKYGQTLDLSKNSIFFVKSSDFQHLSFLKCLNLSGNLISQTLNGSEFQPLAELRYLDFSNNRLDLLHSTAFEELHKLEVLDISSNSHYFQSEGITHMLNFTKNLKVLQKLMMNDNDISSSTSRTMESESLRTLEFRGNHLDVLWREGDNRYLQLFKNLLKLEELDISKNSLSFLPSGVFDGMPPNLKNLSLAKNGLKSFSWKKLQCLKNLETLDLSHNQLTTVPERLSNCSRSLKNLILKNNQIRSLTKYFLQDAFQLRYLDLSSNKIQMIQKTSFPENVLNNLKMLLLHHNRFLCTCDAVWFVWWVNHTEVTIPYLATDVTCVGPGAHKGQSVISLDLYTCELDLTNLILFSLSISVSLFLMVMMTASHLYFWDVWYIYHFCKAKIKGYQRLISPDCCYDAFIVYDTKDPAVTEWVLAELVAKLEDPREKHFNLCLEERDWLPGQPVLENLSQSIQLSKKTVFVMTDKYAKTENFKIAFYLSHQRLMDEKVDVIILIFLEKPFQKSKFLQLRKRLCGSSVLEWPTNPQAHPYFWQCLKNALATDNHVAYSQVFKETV
Experiment: Inhibition of the Activation Assay: As human TLR7 expressing cell line, HEK293 cell line was bought from IMGENEX Corporation (TLR7/NF-ηB/SEAPorter™ HEK293 cell), which is human embryonic kidney cell line and stably expresses full-length human TLR7 gene and secreted alkaline phosphatase (SEAP) reporter gene under the transcriptional control of an NE-ηB response element. The TLR7/NF-ηB/SEAPorter™ HEK293 cell was cultivated with DMEM containing 10% fetal bovine serum (FBS) and 10 μg/mL blasticidin S at 37° C. in the presence of 5% CO2.

| SMILES | IC50 [nM] |
| --- | --- |
| CCCCCc1nc(N)c2nc(-c3cncc(F)c3)n(Cc3ccccc3)c2n1 | 9500 |
| COc1nc(C)c2nc(-c3cncc(F)c3)n(Cc3ccc(C4CCN(C)C4)cc3)c2n1 (stereo not given) | 84 |
| CCOc1nc(C)c2nc(-c3cncc(F)c3)n(Cc3ccc(C4CN5CCC4CC5)cc3)c2n1 (stereo not given) | 7 |
| CCCCOc1nc(N)c2nc(-c3ccc(OCCCN4CCOCC4)cc3)n(Cc3ccccc3)c2n1 | 4100 |
| CCCCOc1nc(N)c2nc(-c3ccc(CN4CCOCC4)cc3)n(Cc3ccccc3)c2n1 | 8200 |
| CCOc1nc(N)c2nc(-c3cncc(F)c3)n(Cc3ccc(CN4CCN5CCC4C5)cc3)c2n1 (stereo not given) | 51 |
| CCOc1nc(N)c2nc(-c3cncc(F)c3)n(Cc3ccc(OCCN4CCCC4)nc3)c2n1 | 620 |
| CCOc1nc(N)c2nc(-c3cncc(F)c3)n(Cc3ccccc3OC(F)F)c2n1 | 2170 |
| CCOc1nc(N)c2nc(-c3cncc(F)c3)n(Cc3ccc(OCCN(C)C)cc3)c2n1 | 99 |
| CCOc1nc(N)c2nc(-c3cncc(F)c3)n(Cc3ccc(OCCN(C)C)nc3)c2n1 | 810 |
| CCOc1nc(C)c2nc(-c3cncc(F)c3)n(Cc3ccc(CN4CCN5CCC4C5)cc3)c2n1 (stereo not given) | 28 |
| CCOc1nc(N)c2nc(-c3cncc(F)c3)n(Cc3ccc(F)c(OCCN4CCCC4)c3)c2n1 | 620 |
| CCOc1nc(N)c2nc(-c3cncc(F)c3)n(Cc3ccc(OCCCN(C)C)cc3)c2n1 | 89 |
| COCCOc1nc(N)c2nc(-c3cncc(C)c3)n(Cc3ccccc3)c2n1 | 9100 |
| CCOc1nc(N)c2nc(-c3cncc(F)c3)n(Cc3cccc(OCCN(C)C)n3)c2n1 | 1430 |
| CCCCOc1nc(N)c2nc(-c3cccc(CN4CCOCC4)c3)n(Cc3ccccc3)c2n1 | 13900 |
| CCOc1nc(N)c2nc(-c3cncc(F)c3)n(Cc3ccnc(OCCN(C)C)c3)c2n1 | 1800 |
| CCOc1nc(N)c2nc(-c3cncc(F)c3)n(Cc3ccc(C4CCN(C)C4)cc3)c2n1 (stereo not given) | 20 |

| SMILES | IC50 [nM] |
| --- | --- |
| CCOc1nc(N)c2nc(-c3cncc(F)c3)n(Cc3cccc(OCCN(C)C)c3)c2n1 | 77 |
| CCCCOc1nc(C)c2nc(-c3cncc(F)c3)n(Cc3ccc(CN(C)C)cc3)c2n1 | 200 |
| CCOc1nc(N)c2nc(-c3cncc(F)c3)n(Cc3cc(CN(C)C)no3)c2n1 | 1300 |
| COc1nc(C)c2nc(-c3cncc(F)c3)n(Cc3ccc(C4=CCN(C(=O)OC(C)(C)C)CC4)cc3F)c2n1 | 291 |
| COc1nc(C)c2nc(-c3cnccn3)n(Cc3ccc(C4CN5CCC4CC5)cc3F)c2n1 (stereo not given) | 43 |
| CCOc1nc(N)c2nc(-c3cncc(F)c3)n(Cc3cccc(OCCCN(C)C)c3)c2n1 | 60 |
| CCOc1nc(N)c2nc(-c3cncc(F)c3)n(Cc3ccc(OCCN4CCN(C)CC4)nc3)c2n1 | 280 |
| CCOc1nc(N)c2nc(-c3cncc(F)c3)n(Cc3cc(OCCN(C)C)ccn3)c2n1 | 5800 |
| CCOc1nc(C)c2nc(-c3cncc(F)c3)n(Cc3ccc(CN4C[C@@H]5C[C@H]4CN5CC)nc3)c2n1 | 230 |
| CCOc1nc(N)c2nc(-c3cncc(F)c3)n(Cc3ccc(OCCN4CCN(C)CC4)cc3)c2n1 | 67 |
| CCOc1nc(N)c2nc(-c3cncc(F)c3)n(Cc3ccc(F)c(OCCN(C)C)c3)c2n1 | 420 |
| COc1nc(C)c2nc(-c3cncc(F)c3)n(Cc3ccc(CC4CCN(C(=O)OC(C)(C)C)CC4)cc3F)c2n1 | 355 |
| CCOc1nc(C)c2nc(-c3cncc(F)c3)n(Cc3ccc(CN4CCN5CC[C@H]4C5)cc3)c2n1 | 63 |
| CCOc1nc(C)c2nc(-c3cncc(F)c3)n(Cc3cnn(C)c3)c2n1 | 2680 |
| CCOc1nc(N)c2nc(-c3cncc(F)c3)n(Cc3ccc4c(c3)CN(C(=O)CN(C)C)C4)c2n1 | 460 |
| COc1nc(C)c2nc(-c3cncc(F)c3)n(Cc3ccc([C@H]4CN5CCC4CC5)cc3)c2n1 | 3 |
| COc1nc(C)c2nc(-c3cccnc3)n(Cc3ccc(O[C@@H]4CN5CCC4CC5)cc3F)c2n1 | 70 |

— ChEMBL document CHEMBL5727796, “Substituted purine derivative” (2020)
